Experimental data as given in US20230131903A1, “PESTICIDALLY ACTIVE FUSED BICYCLIC HETEROAROMATIC COMPOUNDS” (SYNGENTA CROP PROTECTION AG, priority 2020, published 2023).

Assays:
Assay type in all cases: in vivo
[1] = tested on: Euschistus heros (Neotropical Brown Stink Bug); test: Example B2: Euschistus heros (neotropical brown stink bug), soybean leaves sprayed, N2 nymphs; details: 120 h, application rate of 200 ppm, 5 days after infestation, in comparison to untreated samples, read-out: control in at least one of the two categories (mortality or growth inhibition)
Experimental: Example B2: Euschistus heros (Neotropical Brown Stink Bug)
Soybean leaves on agar in 24-well microtiter plates were sprayed with aqueous test solutions prepared from 10′000 ppm DMSO stock solutions. After drying the leaves were infested with N2 nymphs. The samples were assessed for mortality and growth inhibition in comparison to untreated samples 5 days after infestation.
(§1) The following compounds gave an effect of at least 80% control in at least one of the two categories (mortality or growth inhibition) at an application rate of 200 ppm

[2] = tested on: Diabrotica Balteata (Corn Root Worm); test: Example B1: Diabrotica balteata (corn root worm), maize sprouts sprayed, L2 larvae; details: 96 h, application rate of 200 ppm, 4 days after infestation, in comparison to untreated samples, read-out: control in at least one of the two categories (mortality or growth inhibition)
Experimental: Example B1: Diabrotica Balteata (Corn Root Worm)
Maize sprouts placed onto an agar layer in 24-well microtiter plates were treated with aqueous test solutions prepared from 10′000 ppm DMSO stock solutions by spraying. After drying, the plates were infested with L2 larvae (6 to 10 per well). The samples were assessed for mortality and growth inhibition in comparison to untreated samples 4 days after infestation.
as §1

[3] = tested on: Plutella xylostella (Diamond Back Moth); test: Example B4: Plutella xylostella (diamond back moth), artificial diet, eggs; details: 192 h, application rate of 200 ppm, 8 days after infestation, in comparison to untreated samples, read-out: control in at least one of the two categories (mortality or growth inhibition)
Experimental: Example B4: Plutella xylostella (Diamond Back Moth)
24-well microtiter plates with artificial diet were treated with aqueous test solutions prepared from 10′000 ppm DMSO stock solutions by pipetting. After drying, Plutella eggs were pipetted through a plastic stencil onto a gel blotting paper and the plate was closed with it. The samples were assessed for mortality and growth inhibition in comparison to untreated samples 8 days after infestation.
as §1

[4] = tested on: Chilo suppressalis (Striped Rice Stemborer); test: Example B3: Chilo suppressalis (striped rice stemborer), artificial diet, L2 larvae; details: 144 h, application rate of 200 ppm, 6 days after infestation, in comparison to untreated samples, read-out: control in at least one of the three categories (mortality, anti-feedant effect, or growth inhibition)
Experimental: Example B3: Chilo suppressalis (Striped Rice Stemborer)
24-well microtiter plates with artificial diet were treated with aqueous test solutions prepared from 10′000 ppm DMSO stock solutions by pipetting. After drying, the plates were infested with L2 larvae (6-8 per well). The samples were assessed for mortality, anti-feeding effect, and growth inhibition in comparison to untreated samples 6 days after infestation. Control of Chilo suppressalis by a test sample is given when at least one of the categories mortality, anti-feedant effect, and growth inhibition is higher than the untreated sample.

[5] = tested on: Spodoptera littoralis (Egyptian Cotton Leaf Worm); test: Example B5: Spodoptera littoralis (Egyptian cotton leaf worm), cotton leaf discs sprayed, L1 larvae; details: foliar, 72 h, application rate of 200 ppm, 3 days after infestation, in comparison to untreated samples, read-out: control in at least one of the three categories (mortality, anti-feedant effect, or growth inhibition)
Experimental: Example B5: Spodoptera littoralis (Egyptian Cotton Leaf Worm)
Cotton leaf discs were placed onto agar in 24-well microtiter plates and sprayed with aqueous test solutions prepared from 10′000 ppm DMSO stock solutions. After drying the leaf discs were infested with five L1 larvae. The samples were assessed for mortality, anti-feeding effect, and growth inhibition in comparison to untreated samples 3 days after infestation. Control of Spodoptera littoralis by a test sample is given when at least one of the categories mortality, anti-feedant effect, and growth inhibition is higher than the untreated sample.

CC(c1ncnn1-c1ncccn1)N(C)c1nc(=O)n(C)c2c(C(F)(F)F)cc(Br)cc12 (stereo not shown) [P6, 6-bromo-1-methyl-4-[methyl-[1-(2-pyrimidin-2-yl-1,2,4-triazol-3-yl)ethyl]amino]-8-E (trifluoromethyl)quinazolin-2-one]
percent control (mortality or growth inhibition) at 200 ppm [1]: ≥ 80%
percent control (mortality or growth inhibition) at 200 ppm [2]: ≥ 80%

CC(c1ncnn1-c1ncccn1)N(C)c1nc(=O)n(CC(F)(F)F)c2ccc(C(F)(F)F)cc12 (stereo not shown) [P12, 4-[methyl-[1-(2-pyrimidin-2-yl-1,2,4-triazol-3-yl)ethyl]amino]-1-(2,2,2-trifluoroethyl)-6-(trifluoromethyl) quinazolin-2-one]
percent control (mortality or growth inhibition) at 200 ppm [1]: ≥ 80%

CC(Nc1cc(=O)[nH]c2c(Cl)cc(C(F)(F)F)cc12)c1nccnc1-c1ncccn1 (stereo not shown) [P8, 8-chloro-4-[1-(3-pyrimidin-2-ylpyrazin-2-yl)ethylamino]-6-(trifluoromethyl)-1H-quinolin-2-one]
percent control (mortality or growth inhibition) at 200 ppm [3]: ≥ 80%
percent control (mortality or growth inhibition) at 200 ppm [2]: ≥ 80%

CC(Nc1nc(=O)n(C)c2c(Cl)cc(C(F)(F)F)cc12)c1ncnn1-c1ncccn1 (stereo not shown) [P7, 8-chloro-1-methyl-4-[1-(2-pyrimidin-2-yl-1,2,4-triazol-3-yl)ethylamino]-6-(trifluoromethyl) quinazolin-2-one]
percent control (mortality or growth inhibition) at 200 ppm [3]: ≥ 80%
percent control (mortality or growth inhibition) at 200 ppm [1]: ≥ 80%
percent control (mortality, anti-feedant effect or growth inhibition) at 200 ppm [4]: ≥ 80%

CC(c1ncnn1-c1ncccn1)N(CC1CC1)c1nc(=O)[nH]c2c(Br)cc(C(F)(F)F)cc12 (stereo not shown) [P3, 8-bromo-4-[cyclopropylmethyl-[1-(2-pyrimidin-2-yl-1,2,4-triazol-3-yl)ethyl]amino]-6-(trifluoromethyl)-1H-quinazolin-2-one]
percent control (mortality or growth inhibition) at 200 ppm [3]: ≥ 80%
percent control (mortality or growth inhibition) at 200 ppm [1]: ≥ 80%
percent control (mortality or growth inhibition) at 200 ppm [2]: ≥ 80%

CC(Nc1nc(=O)[nH]c2c(Br)cc(C(F)(F)F)cc12)c1ncnn1-c1ncccn1 (stereo not shown) [P2]
percent control (mortality or growth inhibition) at 200 ppm [3]: ≥ 80%
percent control (mortality or growth inhibition) at 200 ppm [1]: ≥ 80%
percent control (mortality or growth inhibition) at 200 ppm [2]: ≥ 80%
percent control (mortality, anti-feedant effect or growth inhibition) at 200 ppm [4]: ≥ 80%

CC(Nc1nc(=O)n(C)c2c(C(F)(F)F)cc(Br)cc12)c1ncnn1-c1ncccn1 (stereo not shown) [P5, 6-bromo-1-methyl-4-[1-(2-pyrimidin-2-yl-1,2,4-triazol-3-yl)ethylamino]-8-(trifluoromethyl)quinazolin-2-one]
percent control (mortality or growth inhibition) at 200 ppm [3]: ≥ 80%
percent control (mortality, anti-feedant effect or growth inhibition) at 200 ppm [5]: ≥ 80%
percent control (mortality or growth inhibition) at 200 ppm [1]: ≥ 80%
percent control (mortality or growth inhibition) at 200 ppm [2]: ≥ 80%
percent control (mortality, anti-feedant effect or growth inhibition) at 200 ppm [4]: ≥ 80%

CC(c1ncnn1-c1ncccn1)N(CC1CC1)c1nc(=O)[nH]c2c(Cl)cc(C(F)(F)F)cc12 (stereo not shown) [P1, 8-chloro-4-[cyclopropylmethyl-[1-(2-pyrimidin-2-yl-1,2,4-triazol-3-yl)ethyl]amino]-6-(trifluoromethyl)-1H-quinazolin-2-one]
percent control (mortality or growth inhibition) at 200 ppm [3]: ≥ 80%
percent control (mortality or growth inhibition) at 200 ppm [1]: ≥ 80%
percent control (mortality or growth inhibition) at 200 ppm [2]: ≥ 80%

CC(c1ncnn1-c1ncccn1)N(C)c1nc(=O)n(C)c2c(Cl)cc(C(F)(F)F)cc12 (stereo not shown) [P10, 8-chloro-1-methyl-4-[methyl-[1-(2-pyrimidin-2-yl-1,2,4-triazol-3-yl)ethyl]amino]-6-(trifluoromethyl) quinazolin-2-one]
percent control (mortality or growth inhibition) at 200 ppm [1]: ≥ 80%

CC(Nc1nc(=O)[nH]c2c(Cl)cc(C(F)(F)F)cc12)c1ncnn1-c1ncccn1 (stereo not shown) [P4, 8-chloro-4-[1-(2-pyrimidin-2-yl-1,2,4-triazol-3-yl)ethylamino]-6-(trifluoromethyl)-1H-quinazolin-2-one]
percent control (mortality or growth inhibition) at 200 ppm [3]: ≥ 80%
percent control (mortality, anti-feedant effect or growth inhibition) at 200 ppm [5]: ≥ 80%
percent control (mortality or growth inhibition) at 200 ppm [1]: ≥ 80%
percent control (mortality, anti-feedant effect or growth inhibition) at 200 ppm [4]: ≥ 80%
